According to patent publication US20070219159A1, “CYCLODEXTRIN COMPOSITIONS AND METHODS OF TREATING VIRAL INFECTIONS” (priority 2002, published 2007):
Converted amounts (≈) assume the structure as drawn. Where two headings read alike, the source gives them in different places.

Assays:
HSV-1 = HSV-1 plaque formation / IC50 study in Vero cells; assay type: cell-based; settings: for Plaques ± Std. Dev.: HSV-1 plaques per well, 48 hours
Vero cells = settings: 48 hours
[1] = Human alphaherpesvirus 1, Vero, read-out: % of control ± SEM

Compound: OC[C@H]1O[C@@H]2O[C@H]3[C@H](O)[C@@H](O)[C@@H](O[C@H]4[C@H](O)[C@@H](O)[C@@H](O[C@H]5[C@H](O)[C@@H](O)[C@@H](O[C@H]6[C@H](O)[C@@H](O)[C@@H](O[C@H]7[C@H](O)[C@@H](O)[C@@H](O[C@H]8[C@H](O)[C@@H](O)[C@@H](O[C@H]1[C@H](O)[C@H]2O)O[C@@H]8CO)O[C@@H]7CO)O[C@@H]6CO)O[C@@H]5CO)O[C@@H]4CO)O[C@@H]3CO [BCD, β-cyclodextrin]
- Plaques ± Std. Dev. (HSV-1; BCD 3.5 mg/ml): 119.0 ± 1.0
- Plaques ± Std. Dev. (HSV-1; BCD 4.0 mg/ml): 111.0 ± 6.6
- Plaques ± Std. Dev. (HSV-1; BCD 4.5 mg/ml): 84.0 ± 10.53
- Plaques ± Std. Dev. (HSV-1; BCD 5.0 mg/ml): 74.67 ± 4.51
- Plaques ± Std. Dev. (HSV-1; BCD 5.5 mg/ml): 54.67 ± 5.68
- Plaques ± Std. Dev. (HSV-1; BCD 6.0 mg/ml): <10
- IC50 (HSV-1; Human alphaherpesvirus 1, Vero, 48 h): 5100 µg/mL (≈ 4.49 mM)
- activity at 3500 µg/mL (HSV-1; [1]): 85.2 ± 0.58%
- activity at 4000 µg/mL (HSV-1; [1]): 79.5 ± 3.8%
- activity at 4500 µg/mL (HSV-1; [1]): 60.1 ± 6.08%
- activity at 5000 µg/mL (HSV-1; [1]): 53.5 ± 2.6%
- activity at 5500 µg/mL (HSV-1; [1]): 39.1 ± 3.28%
- cell viability (normalized to control cells) (Vero cells; 5.5 mg/ml BCD): 91.23%
- cell viability (normalized to control cells) (Vero cells; 7.2 mg/ml BCD): 84.89%
- cytotoxicity (Vero cells; maximum concentration of BCD): < 15%
